In ChEMBL document CHEMBL3045682, “Synthesis of some new indolo[2,3-c]isoquinolinyl pyrazoles, -1,3,4-oxadiazoles and their biological activities” (2013):

Assays:
Assay type in all cases: functional
[1] = tested on: Aspergillus niger; test: Antifungal activity against Aspergillus niger assessed as growth inhibition at 1 mg/ml by cup-plate method; conditions: read-out: IZ
[2] = tested on: Escherichia coli; test: Antibacterial activity against Escherichia coli assessed as growth inhibition at 1 mg/ml by cup-plate method; conditions: read-out: IZ
[3] = tested on: Bacillus subtilis; test: Antibacterial activity against Bacillus subtilis assessed as growth inhibition at 1 mg/ml by cup-plate method; conditions: read-out: IZ
[4] = tested on: Pseudomonas putida; test: Antibacterial activity against Pseudomonas putida assessed as growth inhibition at 1 mg/ml by cup-plate method; conditions: read-out: IZ
[5] = tested on: Aspergillus fumigatus; test: Antifungal activity against Aspergillus fumigatus assessed as growth inhibition at 1 mg/ml by cup-plate method; conditions: read-out: IZ
[6] = tested on: Aspergillus flavus; test: Antifungal activity against Aspergillus flavus assessed as growth inhibition at 1 mg/ml by cup-plate method; conditions: read-out: IZ
[7] = tested on: Radical scavenging activity; test: Antioxidant activity assessed as DPPH free radical scavenging activity at 50 ug/ml by spectrophotometric analysis relative to control
[8] = tested on: Radical scavenging activity; test: Antioxidant activity assessed as DPPH free radical scavenging activity at 75 ug/ml by spectrophotometric analysis relative to control
[9] = tested on: Radical scavenging activity; test: Antioxidant activity assessed as DPPH free radical scavenging activity at 25 ug/ml by spectrophotometric analysis relative to control
[10] = tested on: Radical scavenging activity; test: Antioxidant activity assessed as DPPH free radical scavenging activity at 100 ug/ml by spectrophotometric analysis relative to control

SMILES	zone of inhibition at 1000 µg/mL [1]	zone of inhibition at 1000 µg/mL [2]	zone of inhibition at 1000 µg/mL [3]	zone of inhibition at 1000 µg/mL [4]	zone of inhibition at 1000 µg/mL [5]	zone of inhibition at 1000 µg/mL [6]	Activity [7]	Activity [8]	Activity [9]	Activity [10]
COc1ccc2[nH]c3c(c2c1)c1ccccc1c(=O)n3C(=O)N1N=C(C)CC1=O	9 mm	17 mm	10 mm	10 mm	4 mm	7 mm	–	–	–	–
CC1=NN(C(=O)n2c(=O)c3ccccc3c3c4cc(C)ccc4[nH]c32)C(=O)C1	12 mm	10 mm	8 mm	18 mm	15 mm	14 mm	64.2%	56.5%	58%	–
Cc1cc(C)n(C(=O)n2c(=O)c3ccccc3c3c4cc(Cl)ccc4[nH]c32)n1	16 mm	9 mm	11 mm	19 mm	15 mm	11 mm	–	–	–	–
O=c1c2ccccc2c2c3cc(Cl)ccc3[nH]c2n1-c1n[nH]c(=S)o1	17 mm	18 mm	19 mm	20 mm	17 mm	16 mm	69.8%	58%	68.3%	68.9%
COc1ccc2[nH]c3c(c2c1)c1ccccc1c(=O)n3C(=O)n1nc(C)cc1C	10 mm	11 mm	8 mm	10 mm	4 mm	8 mm	–	53.8%	–	–
CC1=NN(C(=O)n2c(=O)c3ccccc3c3c4cc(Cl)ccc4[nH]c32)C(=O)C1	6 mm	7 mm	10 mm	15 mm	13 mm	9 mm	–	–	67.5%	–
Cc1ccc2[nH]c3c(c2c1)c1ccccc1c(=O)n3-c1n[nH]c(=S)o1	8 mm	11 mm	11 mm	19 mm	10 mm	13 mm	65.4%	–	57.7%	–
CN[C@@H]1[C@H](O[C@H]2[C@H](O[C@H]3[C@H](O)[C@@H](O)[C@H](N=C(N)N)[C@@H](O)[C@@H]3N=C(N)N)O[C@@H](C)[C@]2(O)C=O)O[C@@H](CO)[C@H](O)[C@H]1O [STREPTOMYCIN]	–	19 mm	20 mm	22 mm	–	–	–	–	–	–
COc1ccc2[nH]c3c(c2c1)c1ccccc1c(=O)n3-c1n[nH]c(=S)o1	10 mm	13 mm	10 mm	7 mm	15 mm	10 mm	67.8%	–	60.8%	–
O=C(n1nc(-c2ccccc2)cc1-c1ccccc1)n1c(=O)c2ccccc2c2c3cc(Cl)ccc3[nH]c21	4 mm	10 mm	13 mm	18 mm	15 mm	9 mm	–	–	–	–
OC(Cn1cncn1)(Cn1cncn1)c1ccc(F)cc1F [FLUCONAZOLE]	18 mm	–	–	–	18 mm	19 mm	–	–	–	–
Cc1ccc2[nH]c3c(c2c1)c1ccccc1c(=O)n3C(=O)n1nc(-c2ccccc2)cc1-c1ccccc1	15 mm	5 mm	9 mm	13 mm	4 mm	13 mm	56.9%	–	56.2%	–
COc1ccc2[nH]c3c(c2c1)c1ccccc1c(=O)n3C(=O)n1nc(-c2ccccc2)cc1-c1ccccc1	9 mm	11 mm	11 mm	17 mm	15 mm	17 mm	–	–	60%	–
Cc1ccc2[nH]c3c(c2c1)c1ccccc1c(=O)n3C(=O)n1nc(C)cc1C	8 mm	13 mm	11 mm	10 mm	11 mm	16 mm	–	–	–	64.7%
